# Test: Enrichment (partitioning from water to air in segmented flow), enrichment factor
# Type: physicochemical
# Details: calculated enrichment factor
# Text: That is, each enrichment factor is a direct measure of the detection capabilities of the method and apparatus with respect to a specific volatile compound compound.
# Both the detection limit in air and quantitation limit in water will vary depending on the sensitivity of the analytical equipment used. Thus, at any given testing site the sensitivity of the particular gas chromatograph used will determine detection and quantitation limits.
# Without benefit of known enrichment factor for each compound compound present, extrapolation of the quantitation limit (LOQ) for each compound was accomplished by multiplying the signal-to-noise ratio of the test instrument by ten. These quantitation limits are a reflection of both the detector sensitivity (LOD) and what can be referred to as the enrichment factor or magnification of the concentration into the air phase. Thus, an enrichment factor was calculated for each compound as follows: [formula]
# The enrichment factor depends on the volatility, water solubility, and diffusion coefficient of the particular compound.
row,Compound,EF (air/water)
1,"ClC(Cl)C(Cl)Cl [1,1,2,2-TETRACHLOROETHANE]",2.0
2,"ClCC(Cl)Cl [1,1,2-TRICHLOROETHANE]",3.9
3,"CC(Cl)(Cl)Cl [1,1,-TRICHLOROETHANE]",6.8
4,"CC(Cl)Cl [1,1-DICHLOROETHANE]",6.7
5,"Clc1ccccc1Cl [1,2-DICHLOROBENZENE]",1.7
6,"ClCCCl [1,2-DICHLOROETHANE]",6.8
7,"CC(Cl)CCl (stereo not drawn) [1,2-DICHLOROPROPANE]",7.7
8,ClC(Cl)Br [BROMODICHLOROMETHANE],7.7
9,BrC(Br)Br [BROMOFORM],2.0
10,ClC(Cl)(Cl)Cl [CARBON TETRACHLORIDE],7.7
11,Clc1ccccc1 [CHLOROBENZENE],4.0
12,ClC(Br)Br [CHLORODIBROMOMETHANE],3.7
13,ClC(Cl)Cl [CHLOROFORM],6.6
14,CBr [METHYL BROMIDE],76
15,ClCCl [METHYLENE CHLORIDE],8.2
16,ClC(Cl)=C(Cl)Cl [PERCHLOROETHYLENE],4.8
17,ClC=C(Cl)Cl [TRICHLOROETHYLENE],9.9
18,C=C(Cl)Cl [[…]],12
19,"Cl/C=C\CCl [c-1,3 DICHLOROPROPENE]",3.6
20,"Cl/C=C/Cl [t-1,2-DICHLOROETHYLENE]",16
21,"Cl/C=C/CCl [t-1,3-DICHLOROPROPENE]",7.2

# From patent publication US5235843A, “Method and apparatus for analyzing volatile chemical components in a liquid” (The Dow Chemical Company, priority 1991, dated 1993)
